Tested on: Cynomolgus monkeys
Test: Bilirubin Monkey Test
Assay type: in vivo
Protocol: The product of Example 4 was formulated in 5% DMSO: 2% Tween 80: 10% SBE-CD with 1 molar equiv of HCl at 6 mg/ml and dosed at 30 mg/kg. Cynomolgus monkeys (each group n=6) had baseline blood drawn at day 0 at 9 am. On day 1, the monkeys were fed their morning meal at 7 am. After 1 hour, all left over food was removed and fast was begun. There was twice a day oral dosing of compound or vehicle on day 1 and day 2 of the fast, on day 3 there was an oral dose the morning (8 am) before the blood draw (9 am). Food was returned to the monkeys at this point. Oral dosing occurred at approximately 8:00 a.m. and 4:00 p.m. administered by oral gavage. Serum chemistries were screened on baseline and end of treatment blood draws. Significant changes were detected in bilirubin levels. Bilirubin increased in the fasted state, as expected (total, direct, and indirect bilirubin changed 2.0-, 2.4- and 1.92-fold, respectively over baseline).

[1] = fasted cynomolgus monkeys, 30 mg/kg oral gavage twice a day, end of treatment (day 3) vs baseline
[2] = serum, 48 hr fast, 30 mg/kg oral twice a day, n=6

Structure (SMILES): O=C(O)c1ccc2nc(NC(c3ccccc3)c3ccccc3)n(CCc3ccccc3)c2c1.O=S(=O)(O)O [Example 4, 2-[(diphenylmethyl)amino]-1-(2-phenylethyl)-1H-benzimidazole-6-carboxylic acid sulfate]
- direct bilirubin change over baseline [1]: 4.71 fold
- indirect bilirubin change over baseline [1]: 3.53 fold
- total bilirubin change over baseline [1]: 3.74 fold
- DBIL (direct bilirubin) [2]: 0.165 ± 0.01 mg/dL
- IBIL (indirect bilirubin) [2]: 0.565 ± .036 mg/dL
- TBIL (total bilirubin) [2]: 0.73 ± 0.04 mg/dL

— patent US20100105749A1, “CHEMICAL COMPOUNDS, PHARMACEUTICAL COMPOSITIONS AND METHODS” (SMITHKLINE BEECHAM CORPORATION, priority 2007, published 2010)
